The values that follow come from US20260184689A1, “PIPERIDINE-SUBSTITUTED BENZOIC ACID COMPOUND, AND PHARMACEUTICAL COMPOSITION AND USE THEREOF” (SHANGHAI YISHENG BIOPHARMACEUTICAL COMPANY LIMITED, priority 2022, published 2026).

The subject of one assay is PNH-like erythrocytes. In words: Alternative pathway inhibition assay of PNH-like erythrocyte. The class given is cell-based. The note with it: 1 h, AET/anti-CD55 sensitized human erythrocytes, acidified normal human serum pH 6.4, 37° C. 60 min. The source says:
Principle: PNH, as an indication for complement inhibitors, was typically tested using the Ham test, which states that acidified serum was capable of activating the alternative pathway, leading to hemolysis of PNH erythrocytes, while normal erythrocytes remained unaffected. It was reported in the literature that AET could disrupt the complement regulatory proteins on the surface of normal human erythrocytes, resulting in PNH-like erythrocytes.
Reagents and instrument: PBS buffer, normal human serum (NHS), Alsever's solution, microplate reader, MgCl2, EGTA, EDTA, HCl, normal human erythrocytes, AET; anti-CD-55 antibody (BRIC216; Sigma)
PBS buffer: Potassium dihydrogen phosphate (KH2PO4): 0.24 g/L, disodium hydrogen phosphate (Na2HPO4): 1.44 g/L, sodium chloride (NaCl): 8 g/L, potassium chloride (KCl): 0.2 g/L, pH 7.4
PBSE buffer: PBS, 10 mM EDTA; pH 7.4
PBSMg buffer: PBS, 1 mM Mg++; pH 6.4
10× Mg-EGTA stock solution: 25 mM MgCl2, 80 mM EGTA; pH 6.4
10× EDTA stock solution: 100 mM EDTA; pH 6.4
Method: The inhibition of alternative pathway-mediated erythrocyte lysis was evaluated using an in vitro model of PNH. Normal human erythrocytes were sensitized with 2-aminoethylisothiouronium bromide (AET) to inactivate complement regulatory proteins on the cell surface and induce a PNH-like phenotype.
2 mL of normal human erythrocytes were mixed with 2 mL of Alsever's solution, washed three times with PBS, and centrifuged at 2500×g, with the upper 10% of the erythrocytes being removed each time. The washed 1 mL erythrocytes were sensitized by incubation with 4 mL of 8% w/v AET (pH 8.0) at 37° C. for 10 min, followed by three additional washes with PBS. Subsequently, the concentration of erythrocytes in PBS (erythrocyte stock solution) was adjusted with PBS such that an absorbance of 1.5-2.0 at 412 nm (indicating hemoglobin release) was achieved upon dilution of 10 μL erythrocyte stock solution with 190 μL water.
1.5 mL of the erythrocyte stock solution was mixed with anti-CD55 antibody (BRIC216; Sigma/final concentration of 6.7 μg/mL) and incubated on ice for 30 min. After being washed once with PBS, the treated erythrocytes were resuspended in PBS-Mg to the initial volume of 1.5 mL. The following AP-mediated lysis assay was performed on this erythrocyte preparation with induced PNH phenotype.
The normal human serum was acidified with 0.2 M HCl to pH 6.4, and supplemented with MgCl2 and EGTA to final concentrations of 2.5 and 8 mM, respectively. 80 μL of this serum mixture was mixed with 10 μL of PBS-Mg (negative blank) or 10 μL of samples at various concentrations. Normal human serum was acidified with 0.2 M HCl to pH 6.4, supplemented with EDTA to a final concentration of 10 mM, and 80 μL of this serum mixture was mixed with 10 μL of PBS-Mg (negative blank) as a blank positive control. The sample was incubated with serum on ice for 5 min, and then 10 μL of sensitized erythrocytes were added. The final serum concentration in the reaction mixture was approximately 64% v/v, incubated at 37° C. for 60 min, and the reaction was quenched by adding 50 μL of ice-cold PBS containing 10 mM EDTA. The remaining unlysed cells were centrifuged at 2500×g for 10 min, and 100 μL of the supernatant was transferred to a 96-well plate to measure its absorbance at 412 nm. The amount of hemoglobin released during erythrocyte lysis was thereby quantified. […] represented the relative lysis of PNH-like erythrocytes (expressed in %; set to 0% for the PC sample and 100% for the NC sample). The absorbance was measured using a microplate reader (Molecular Devices SpectraMax 3X). The IC50 value was calculated by applying nonlinear regression with GraphPad Prism 9.0 software from the percentage of hemolysis as a function of the test compound concentration.

For a further assay, the target named is Complement factor B (Homo sapiens, UniProt P00751). The assay can be described thus: Human complement factor B ELISA assay (CVF-Bb, complement C3 protein). The note with it: CVF-Bb incubated with compound 1 hour, then complement C3 protein 37° C. 2 hours, OD 450 nm. More on the design: followed by the addition of 0.2 μL of CVF-Bb (0.1 μmol/mL). The format is biochemical. The procedure:
The mixture was incubated at room temperature for 1 hour;
Then, 9 μL of the successfully incubated samples were taken and added to the wells of the 96T plate, followed by the addition of 1 μL complement C3 protein, and the reaction was carried out at a constant temperature of 37° C. for 2 hours;
The 9 μL of the aforementioned sample-free liquid was mixed with 1 μL of complement C3 protein as the negative control; • 10 μL of the successfully incubated sample was taken, and the inhibitory concentration was determined by ELISA. The OD value at 450 nm was measured, and a curve was plotted. The obtained data were analyzed using GraphPad Prism 7.0 software, and a Log concentration-inhibition rate curve was generated using a nonlinear regression model to calculate the IC50 value.

Chain of Complement factor B (P00751 260-764 limits assumed): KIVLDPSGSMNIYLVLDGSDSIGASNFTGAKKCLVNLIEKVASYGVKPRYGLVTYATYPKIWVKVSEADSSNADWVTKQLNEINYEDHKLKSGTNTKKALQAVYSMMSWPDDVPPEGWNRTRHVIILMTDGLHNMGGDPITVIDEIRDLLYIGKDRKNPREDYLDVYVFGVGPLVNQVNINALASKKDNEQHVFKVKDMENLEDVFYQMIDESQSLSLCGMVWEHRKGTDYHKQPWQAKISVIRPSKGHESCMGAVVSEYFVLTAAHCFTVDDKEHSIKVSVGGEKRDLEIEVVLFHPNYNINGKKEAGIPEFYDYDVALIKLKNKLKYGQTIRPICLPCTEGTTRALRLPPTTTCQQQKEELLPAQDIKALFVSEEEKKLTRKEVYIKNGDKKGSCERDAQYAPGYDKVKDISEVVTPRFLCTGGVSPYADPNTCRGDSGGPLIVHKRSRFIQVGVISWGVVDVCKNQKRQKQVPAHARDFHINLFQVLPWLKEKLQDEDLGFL
Chain of Complement factor B (Q91132 23-649 partner limits assumed): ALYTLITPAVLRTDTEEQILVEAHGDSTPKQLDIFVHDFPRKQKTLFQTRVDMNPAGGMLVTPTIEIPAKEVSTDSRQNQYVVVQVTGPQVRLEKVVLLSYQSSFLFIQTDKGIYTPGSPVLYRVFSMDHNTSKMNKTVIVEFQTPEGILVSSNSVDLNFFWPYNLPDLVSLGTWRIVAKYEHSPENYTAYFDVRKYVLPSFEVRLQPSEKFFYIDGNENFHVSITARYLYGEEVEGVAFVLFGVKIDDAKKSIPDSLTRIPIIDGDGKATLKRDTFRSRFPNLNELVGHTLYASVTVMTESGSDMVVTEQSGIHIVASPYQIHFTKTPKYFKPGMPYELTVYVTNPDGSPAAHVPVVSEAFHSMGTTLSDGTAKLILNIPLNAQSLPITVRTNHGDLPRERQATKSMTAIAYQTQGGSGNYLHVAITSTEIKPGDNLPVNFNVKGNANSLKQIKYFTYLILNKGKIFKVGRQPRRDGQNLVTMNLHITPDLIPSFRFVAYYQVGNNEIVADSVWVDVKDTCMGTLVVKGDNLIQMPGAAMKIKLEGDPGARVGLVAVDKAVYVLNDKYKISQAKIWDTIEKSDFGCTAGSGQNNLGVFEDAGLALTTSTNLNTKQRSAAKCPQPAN
Chain of Complement factor B (Q91132 733-984 partner limits assumed): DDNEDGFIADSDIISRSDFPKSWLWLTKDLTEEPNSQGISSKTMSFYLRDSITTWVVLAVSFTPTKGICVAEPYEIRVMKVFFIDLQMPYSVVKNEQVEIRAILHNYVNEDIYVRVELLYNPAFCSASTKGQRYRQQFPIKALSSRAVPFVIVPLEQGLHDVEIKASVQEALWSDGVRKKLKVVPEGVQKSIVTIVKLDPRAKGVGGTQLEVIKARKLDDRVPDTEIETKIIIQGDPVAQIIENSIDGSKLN
Chain of Complement factor B (Q91132 1264-1642 partner limits assumed): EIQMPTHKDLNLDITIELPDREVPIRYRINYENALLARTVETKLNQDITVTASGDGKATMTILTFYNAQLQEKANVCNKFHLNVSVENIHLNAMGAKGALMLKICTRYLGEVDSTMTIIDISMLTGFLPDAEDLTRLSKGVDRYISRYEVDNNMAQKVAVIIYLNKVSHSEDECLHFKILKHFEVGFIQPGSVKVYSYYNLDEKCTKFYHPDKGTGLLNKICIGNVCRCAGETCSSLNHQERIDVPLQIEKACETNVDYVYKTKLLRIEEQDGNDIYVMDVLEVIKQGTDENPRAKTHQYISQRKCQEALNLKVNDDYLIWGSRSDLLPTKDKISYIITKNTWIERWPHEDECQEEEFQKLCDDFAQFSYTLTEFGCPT

Regarding `CCO[C@H]1CCN(Nc2c(OC)cc(C)c3[nH]ccc23)[C@H](c2ccc(C(=O)O)cc2)C1` [Compound 11 of Example 75, 4-((2S,4S)-4-Ethoxy-1-((5-methoxy-7-methyl-1H-indol-4-yl)amino)piperidin-2-yl)benzoic acid], the IC50 in the assay with PNH-like erythrocytes lay within 100 to 300 nM; on Complement factor B it was 10 to 30 nM.
In the same order, the values of `CCCC1CCN(C(=O)c2c(OC)cc(C)c3[nH]ccc23)C(c2ccc(C(=O)O)cc2)C1` (single isomer, unassigned) [Compound 159A] are 50 to 250 nM and 5 to 30 nM.
The matching figures for `CCCC1CCN(C(=O)c2c(OC)cc(C)c3[nH]ccc23)[C@H](c2ccc(C(=O)O)cc2)C1` (mixture of isomers) [Final product of Example 158, 4-((2S)-1-(5-Methoxy-7-methyl-1H-indole-4-carbonyl)-4-propylpiperidin-2-yl)benzoic acid]: 50 to 250 nM and 5 to 30 nM.
